± gives the uncertainty stated by the source.
Experiment: xn = mol fraction of the nth substance listed

CCc1ccccc1 + CC1COC(=O)O1
viscosity [mPa·s], 101 kPa
Settings	298.15 K	308.15 K
x2 = 0.0294	0.6462 ± 0.026	0.5585 ± 0.023
x2 = 0.042	0.6512 ± 0.026	0.5634 ± 0.023
x2 = 0.0729	0.6609 ± 0.026	0.5767 ± 0.024
x2 = 0.0821	0.6655 ± 0.026	0.5811 ± 0.024
x2 = 0.1013	0.6735 ± 0.027	0.5908 ± 0.024
x2 = 0.2023	0.7164 ± 0.028	0.6552 ± 0.026
x2 = 0.3008	0.8062 ± 0.031	0.7411 ± 0.029
x2 = 0.4012	0.9344 ± 0.035	0.8533 ± 0.033
x2 = 0.5001	1.098 ± 0.041	0.9894 ± 0.037
x2 = 0.6001	1.302 ± 0.047	1.154 ± 0.042
x2 = 0.7001	1.544 ± 0.055	1.345 ± 0.049
x2 = 0.8009	1.827 ± 0.064	1.567 ± 0.056
x2 = 0.8992	2.14 ± 0.074	1.811 ± 0.064

COC(C)(C)C + CCC(C)O
298.15 K, 101 kPa
Settings	viscosity [mPa·s]
x1 = 0.0999	2.16 ± 0.027
x1 = 0.1992	1.57 ± 0.02
x1 = 0.2992	1.16 ± 0.015
x1 = 0.3976	0.91 ± 0.011
x1 = 0.503	0.725 ± 0.009
x1 = 0.6017	0.609 ± 0.008
x1 = 0.6989	0.518 ± 0.007
x1 = 0.7986	0.443 ± 0.006
x1 = 0.8979	0.384 ± 0.005

Clc1cccc2ccccc12 + CCCCCCO
viscosity [mPa·s], 101.33 kPa
Settings	x1 = 0.1047	x1 = 0.2004	x1 = 0.3023	x1 = 0.3992	x1 = 0.5019	x1 = 0.6012	x1 = 0.6993	x1 = 0.8002	x1 = 0.9013
298.15 K	3.951 ± 0.18	3.68 ± 0.17	3.366 ± 0.16	3.133 ± 0.15	2.903 ± 0.15	2.781 ± 0.15	2.706 ± 0.15	2.638 ± 0.16	2.647 ± 0.17
303.15 K	3.335 ± 0.15	3.105 ± 0.14	2.858 ± 0.14	2.67 ± 0.13	2.506 ± 0.13	2.455 ± 0.13	2.44 ± 0.14	2.304 ± 0.14	2.337 ± 0.15
308.15 K	2.608 ± 0.12	2.423 ± 0.11	2.248 ± 0.11	2.084 ± 0.11	1.971 ± 0.1	1.951 ± 0.11	1.942 ± 0.11	1.969 ± 0.12	2.066 ± 0.13

COC(C)(C)C + CCCCCCCC
viscosity [mPa·s], 101 kPa
Settings	293.15 K	298.15 K	303.15 K	308.15 K
x1 = 0.0937	0.5238 ± 0.011	0.5009 ± 0.011	0.4686 ± 0.01	0.4492 ± 0.0097
x1 = 0.1345	–	–	0.444 ± 0.003	–
x1 = 0.1875	0.5065 ± 0.011	0.4844 ± 0.01	0.454 ± 0.0098	0.4355 ± 0.0094
x1 = 0.2831	–	–	0.423 ± 0.003	–
x1 = 0.2942	0.4873 ± 0.01	0.4666 ± 0.01	0.4382 ± 0.0094	0.4201 ± 0.009
x1 = 0.3682	–	–	0.417 ± 0.003	–
x1 = 0.412	0.4668 ± 0.0099	0.447 ± 0.0095	0.4207 ± 0.009	0.4035 ± 0.0086
x1 = 0.4989	–	–	0.406 ± 0.003	–
x1 = 0.511	0.4502 ± 0.0096	0.4313 ± 0.0092	0.4067 ± 0.0087	0.3903 ± 0.0083
x1 = 0.5482	–	–	0.401 ± 0.003	–
x1 = 0.5952	0.4367 ± 0.0093	0.4189 ± 0.0089	0.3957 ± 0.0084	0.3793 ± 0.0081
x1 = 0.699	0.4201 ± 0.0089	0.4027 ± 0.0085	0.3811 ± 0.0081	0.3653 ± 0.0078
x1 = 0.791	–	–	0.388 ± 0.003	–
x1 = 0.7965	0.4039 ± 0.0086	0.3871 ± 0.0082	–	0.3518 ± 0.0075
x1 = 0.8407	–	–	0.381 ± 0.003	–
x1 = 0.9009	0.3867 ± 0.0082	0.3707 ± 0.0079	0.3523 ± 0.0075	0.3376 ± 0.0072

Clc1ccccc1 + OCCOCCOCCO
viscosity [mPa·s], 101 kPa
Settings	298.15 K	308.15 K
x2 = 0.0473	0.941 ± 0.05	0.808 ± 0.045
x2 = 0.149	1.491 ± 0.072	1.172 ± 0.058
x2 = 0.2493	2.307 ± 0.11	1.682 ± 0.08
x2 = 0.3495	3.504 ± 0.16	2.4 ± 0.11
x2 = 0.439	5.014 ± 0.22	3.283 ± 0.15
x2 = 0.4734	5.733 ± 0.24	3.699 ± 0.17
x2 = 0.5509	7.695 ± 0.3	4.829 ± 0.21
x2 = 0.6512	11.09 ± 0.41	6.787 ± 0.28
x2 = 0.7493	15.58 ± 0.55	9.422 ± 0.36
x2 = 0.8483	21.58 ± 0.73	13.05 ± 0.47
x2 = 0.9428	28.99 ± 0.96	17.74 ± 0.61

COCOCOCOCOC + COCOCOC
100 kPa
Settings	viscosity [mPa·s]
298.15 K, x2 = 0.65	1.125 ± 0.053
303.15 K, x2 = 0.12	1.575 ± 0.055

Clc1cccc2ccccc12 + CCCCCO
viscosity [mPa·s], 101.33 kPa
Settings	x1 = 0.1019	x1 = 0.1914	x1 = 0.3014	x1 = 0.371	x1 = 0.4944	x1 = 0.6006	x1 = 0.6961	x1 = 0.7909	x1 = 0.9013
298.15 K	3.204 ± 0.041	3.078 ± 0.048	2.928 ± 0.057	2.833 ± 0.063	2.708 ± 0.075	2.669 ± 0.087	2.659 ± 0.098	2.702 ± 0.11	2.761 ± 0.13
303.15 K	2.83 ± 0.037	2.704 ± 0.042	2.555 ± 0.05	2.473 ± 0.056	2.388 ± 0.066	2.364 ± 0.077	2.358 ± 0.087	2.393 ± 0.099	2.464 ± 0.11
308.15 K	2.469 ± 0.032	2.37 ± 0.037	2.232 ± 0.044	2.179 ± 0.049	2.115 ± 0.059	2.107 ± 0.069	2.107 ± 0.078	2.134 ± 0.088	2.217 ± 0.1

COCCOCCOCCOCCOC + CCOC(C)=O
viscosity [mPa·s], 101 kPa
Settings	298.15 K	308.15 K	318.15 K
x1 = 0.0108	0.448 ± 0.012	0.399 ± 0.011	0.364 ± 0.01
x1 = 0.0195	0.462 ± 0.012	0.413 ± 0.011	0.375 ± 0.01
x1 = 0.0488	0.514 ± 0.014	0.456 ± 0.012	0.413 ± 0.011
x1 = 0.0905	0.594 ± 0.016	0.521 ± 0.014	0.465 ± 0.012
x1 = 0.1406	0.695 ± 0.018	0.607 ± 0.016	0.534 ± 0.014
x1 = 0.1786	0.779 ± 0.021	0.673 ± 0.018	0.591 ± 0.016
x1 = 0.2377	0.919 ± 0.024	0.784 ± 0.021	0.68 ± 0.018
x1 = 0.3377	1.176 ± 0.031	0.988 ± 0.026	0.847 ± 0.022
x1 = 0.4796	1.579 ± 0.042	1.315 ± 0.035	1.092 ± 0.029
x1 = 0.5793	1.896 ± 0.05	1.549 ± 0.041	1.282 ± 0.034
x1 = 0.6422	2.11 ± 0.056	1.699 ± 0.045	1.4 ± 0.037
x1 = 0.7422	2.453 ± 0.065	1.97 ± 0.052	1.549 ± 0.041
x1 = 0.8246	2.726 ± 0.072	2.169 ± 0.057	1.755 ± 0.047
x1 = 0.8574	2.878 ± 0.076	2.258 ± 0.06	1.826 ± 0.048
x1 = 0.9081	3.019 ± 0.08	2.398 ± 0.063	1.921 ± 0.051
x1 = 0.9454	3.159 ± 0.083	2.488 ± 0.066	1.998 ± 0.053
x1 = 0.9792	3.305 ± 0.087	2.581 ± 0.068	2.072 ± 0.055

Clc1ccccc1 + COC(=O)OC
Settings	viscosity [mPa·s]
298.15 K, 101 kPa, x2 = 0.238	0.7093 ± 0.0061

COCCOCCOCCOCCOC + CCOC(=O)OCC
298.15 K, 101.33 kPa
Settings	viscosity [mPa·s]
x1 = 0.0049	0.752 ± 0.013
x1 = 0.014	0.772 ± 0.013
x1 = 0.0274	0.796 ± 0.014
x1 = 0.044	0.824 ± 0.014
x1 = 0.068	0.879 ± 0.015
x1 = 0.0984	0.938 ± 0.016
x1 = 0.1416	1.029 ± 0.017
x1 = 0.2036	1.164 ± 0.019
x1 = 0.2814	1.348 ± 0.022
x1 = 0.3146	1.434 ± 0.023
x1 = 0.3497	1.519 ± 0.024
x1 = 0.3949	1.634 ± 0.026
x1 = 0.4546	1.798 ± 0.029
x1 = 0.5017	1.939 ± 0.031
x1 = 0.5551	2.083 ± 0.033
x1 = 0.5999	2.204 ± 0.035
x1 = 0.6478	2.349 ± 0.037
x1 = 0.691	2.478 ± 0.039
x1 = 0.7376	2.614 ± 0.041
x1 = 0.7849	2.76 ± 0.043
x1 = 0.8377	2.915 ± 0.045
x1 = 0.8758	3.028 ± 0.047
x1 = 0.9345	3.218 ± 0.05
x1 = 0.9719	3.328 ± 0.051
x2 = 0.0132	3.378 ± 0.052
